Several values for one entry are separate records, joined by “and”; a condition that tells them apart may be missing. Equal values may be shown once. Residues, ends and D or L forms follow the SMILES beside them. *: point of attachment. Cbz = O=C(OCc1ccccc1)*; OtBu = CC(C)(C)O*
How the values were obtained:
[1] = target: human ether-a-go-go-related gene (hERG) (Homo sapiens, UniProt Q12809)
[2] = Blood pressure and body weight after dosing, C57BL/6 mice; settings: for Diastolic / MAP / Systolic / Body weight, Pre-dose / Body weight, Terminal: PW164 15 mpk i.d.
[3] = system: Na+ currents in hIPSC-derived sensory neurons (RealDRG); test: Whole-cell voltage clamp, hIPSC-derived sensory neurons (RealDRG) with Nav1.8 blocker A-803467; assay type: cell-based, human; settings: for Long-term inactivation, 2nd Pulse / Long-term inactivation, 3rd Pulse / Long-term inactivation, 4th Pulse / Activation / Peak Density / Steady-State inactivation / Tau (τ): RealDRG
Procedure: Next, we conducted whole-cell patch-clamp electrophysiological recordings in hIPSC-derived sensory neurons under three conditions: unstimulated and treated with 0.07% ethanol (capsaicin vehicle), treated with capsaicin (100 nM, 10 minutes), and treated with capsaicin plus SB-366791 (10 μM), a selective TRPV1 inhibitor. Each group was exposed to either vehicle (0.01% DMSO) or PW164 (50 μM), with all recordings performed in the presence of the Nav1.8 blocker A-803467 (300 nM) ([41]). The experimental groups are color coded in Figure 2A. Capsaicin caused potentiation of INa (Figure 2A) and induced hyperpolarizing shifts in the V1/2 of activation (Figure 2B) and SSI (Figure 2C). […] Next, we investigated whether silencing FGF13 could replicate PW164’s effects and prevent additional activity of the compound. hIPSC-derived sensory neurons were transfected with a previously validated pAAV-shFGF13-GFP construct ([42]) (Supplemental Figure 8). […] Neither PW164 nor FGF13 silencing affected Na+ currents in neurons transfected with pAAV-shCTRL-GFP or pAAV-shFGF13-GFP, whether unstimulated or treated with capsaicin in the presence of ProTx II (Supplemental Figure 9 and Supplemental Table 6). Thus, PW164 selectively modulated FGF13-dependent Na^+ current sensitization via TRPV1, with FGF13 silencing mimicking and validating PW164’s effect. […]
Whole-cell patch clamp electrophysiology
HEK293-Nav1.7 cells, HEK293 stably expressing human Nav1.6 (HEK-Nav1.6), HEK293 stably expressing human Nav1.5 (HEK-Nav1.5), human hIPSC-derived sensory neurons (RealDRGTM from Anatomic Incorporated 1020F1-1M) and donor-derived DRG neurons were plated at low density on glass coverslips and processed for whole-cell patch clamp electrophysiology in voltage-clamp and/or current clamp mode. Whole-cell patch electrophysiological experiments were conducted following previously published studies (26). Current densities were obtained by dividing INa amplitude by membrane capacitance. Current –voltage relationships were generated by plotting current density as a function of the […]. Conductance (G Na) was calculated by the […]
where INa is the current amplitude at voltage Vm, and Erev is the Na+ reversal potential.
Activation curves were derived by plotting normalized GNa as a function of test potential and fitted using […]
Where GNa,Max is the maximum conductance, Va is the membrane potential of half-maximal activation, Em is the membrane voltage and k is the slope factor. For steady -state inactivation, normalized current amplitude (INa/INa,Max) at the test potential was plotted as a function of prepulse potential (Vm) and fitted using the […]
Where Vh is the potential of half-maximal inactivation, E m is the membrane voltage, and k is the slope factor.
Transient INa inactivation decay was estimated with the standard exponential equation. Inactivation time constant (tau, τ) was fitted with the following equation: […]
where I(t) is the amplitude of the current at time t and Iss is the steady-state current during a single voltage-step.
The goodness of fitting was determined by correlation coefficient (R), and the cutoff of R was set at 0.85. To observe effects on long-term inactivation (LTI), a four-step protocol was employed during which cells were subjected to four 0 mV, 20 ms depolarization pulses separated by −90 mV, 40 ms recovery intervals. To control for various cell sizes, the current densities were calculated by dividing INa peak current amplitude/membrane capacitance (Cm). To represent the fraction of channels entering into LTI, the peak INa observed during depolarization cycles 2-4 was normalized to the peak INa observed during depolarization cycle 1 (INa/INa,Cycle 1) and plotted as a function of the depolarization cycle.
The cumulative (frequency-dependent) use-dependency was determined by applying 20 pulses with a depolarization to −10 mV (50 ms duration) and 50 ms recovery intervals with a train of 20 pulses at 10 Hz from a holding potential at -70 mV. […]

[4] = 0h after dosing, individual No. 85, 87, 88, 89, 91, 15 mg/kg
[5] = 2h after dosing, individual No. 85, 87, 88, 89, 91, 15 mg/kg
[6] = 8h after dosing, individual No. 85, 87, 88, 89, 91, 15 mg/kg
[7] = individual No. 85, 87, 88, 89, 91, 15 mg/kg
[8] = + A-803467, AAV-FGF13 + PW164, no capsaicin
[9] = + A-803467, Cap + Control + PW164
[10] = + A-803467, Cap+ AAV-FGF13 PW164
[11] = + A-803467, Cap+ ShFGF13 + PW164
[12] = + A-803467, Cap- Control (pAAV-shCTRL-GFP) + PW164
[13] = + A-803467, Cap- Control + PW164
[14] = + A-803467, Cap- ShFGF13 + PW164
[15] = + Nav1.8 blocker A-803467, Cap+ - PW164
[16] = + Nav1.8 blocker A-803467, Cap+ PW164
[17] = + Nav1.8 blocker A-803467, Cap+ SB-366791 - PW164
[18] = + Nav1.8 blocker A-803467, Cap+ SB-366791 PW164
[19] = + Nav1.8 blocker A-803467, Naïve + PW164
[20] = + Nav1.8 blocker A-803467, Naïve - PW164

human ether-a-go-go-related gene (hERG), sequence (Q12809 whole entry): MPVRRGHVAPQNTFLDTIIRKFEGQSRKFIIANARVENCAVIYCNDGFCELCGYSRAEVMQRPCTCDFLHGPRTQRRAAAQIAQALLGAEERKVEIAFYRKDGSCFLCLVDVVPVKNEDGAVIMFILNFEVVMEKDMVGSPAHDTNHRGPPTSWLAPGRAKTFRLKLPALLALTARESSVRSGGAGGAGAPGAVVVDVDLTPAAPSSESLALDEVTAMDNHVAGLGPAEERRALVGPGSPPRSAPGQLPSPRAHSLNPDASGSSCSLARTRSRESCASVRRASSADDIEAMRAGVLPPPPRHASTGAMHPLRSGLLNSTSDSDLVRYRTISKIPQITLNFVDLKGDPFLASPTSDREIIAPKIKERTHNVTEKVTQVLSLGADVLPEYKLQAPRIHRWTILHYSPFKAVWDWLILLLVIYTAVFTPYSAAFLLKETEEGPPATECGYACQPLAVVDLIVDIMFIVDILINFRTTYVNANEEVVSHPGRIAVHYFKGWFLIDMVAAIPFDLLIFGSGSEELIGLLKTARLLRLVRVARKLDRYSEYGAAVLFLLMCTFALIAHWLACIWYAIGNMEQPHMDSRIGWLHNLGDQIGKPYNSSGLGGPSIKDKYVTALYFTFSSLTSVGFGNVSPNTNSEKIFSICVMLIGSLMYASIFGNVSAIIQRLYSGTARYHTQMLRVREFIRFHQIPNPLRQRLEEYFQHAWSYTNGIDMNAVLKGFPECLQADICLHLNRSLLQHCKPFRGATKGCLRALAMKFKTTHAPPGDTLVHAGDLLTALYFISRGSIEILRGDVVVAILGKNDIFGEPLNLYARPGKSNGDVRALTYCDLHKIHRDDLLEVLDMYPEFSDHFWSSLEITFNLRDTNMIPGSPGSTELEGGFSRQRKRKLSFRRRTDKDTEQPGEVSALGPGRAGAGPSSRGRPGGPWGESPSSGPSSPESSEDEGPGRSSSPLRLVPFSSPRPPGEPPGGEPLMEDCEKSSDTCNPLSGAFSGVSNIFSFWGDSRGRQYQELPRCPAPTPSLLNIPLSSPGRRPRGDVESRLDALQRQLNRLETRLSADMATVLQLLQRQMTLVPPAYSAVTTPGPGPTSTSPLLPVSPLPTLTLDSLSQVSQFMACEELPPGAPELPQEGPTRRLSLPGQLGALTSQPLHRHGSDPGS

COC(=O)[C@@H](NC(=O)[C@H](CCC(=O)OC(C)(C)C)NC(=O)[C@H](CC(C)C)NC(=O)[C@@H]1CCCN1C(=O)OCc1ccccc1)C(C)C [PW164] (Cbz-PLE(OtBu)V-OMe)
IC50 [1]: > 30 µM
Diastolic ([2]; 0h after dosing, Mean): 81
MAP ([2]; 0h after dosing, Mean): 92
Systolic ([2]; 0h after dosing, Mean): 114
Diastolic [2, 4]: 95 and 77 and 98 and 72 and 63
MAP [2, 4]: 105 and 81 and 78 and 103 and 92
Systolic [2, 4]: 120 and 101 and 108 and 118 and 121
Diastolic ([2]; 2h after dosing, Mean): 74
MAP ([2]; 2h after dosing, Mean): 85
Systolic ([2]; 2h after dosing, Mean): 109
Diastolic [2, 5]: 75 and 64 and 68 and 76 and 85
MAP [2, 5]: 86 and 76 and 79 and 92 and 93
Systolic [2, 5]: 107 and 100 and 103 and 125 and 111
Diastolic ([2]; 8h after dosing, Mean): 81
MAP ([2]; 8h after dosing, Mean): 93
Systolic ([2]; 8h after dosing, Mean): 119
Diastolic [2, 6]: 78 and 94 and 81 and 74 and 76
MAP [2, 6]: 89 (3×) and 103 and 95
Systolic [2, 6]: 114 and 121 and 123 and 120 and 117
Body weight, Pre-dose ([2]; Mean): 25.3 g
Body weight, Terminal ([2]; Mean): 24.8 g
Body weight, Pre-dose [2, 7]: 25.7 g and 27.0 g and 24.4 g (2×) and 25.0 g
Body weight, Terminal [2, 7]: 24.9 g and 26.8 g and 23.9 g and 23.8 g and 24.5 g
blood pressure or body weight changes ([2]; up to 8 hours after injection): No changes
effect on capsaicin-induced Na+ current phenotypes ([3]; PW164 50 μM, 30–60 minutes, capsaicin 100 nM, except LTI): reversed capsaicin-induced phenotypes
effect on Na+ currents without sensitization ([3]; PW164 50 μM, unstimulated control, or SB-366791, or ProTx II): no significant alterations
Long-term inactivation, 2nd Pulse ([3]; + A-803467, AAV FGF13 + PW64): −68.4 ± 7.1 % maximal Na+ current
Long-term inactivation, 3rd Pulse ([3]; + A-803467, AAV FGF13 + PW64): −61.9 ± 7.5 % maximal Na+ current
Long-term inactivation, 4th Pulse ([3]; + A-803467, AAV FGF13 + PW64): −58.5 ± 8.3 % maximal Na+ current
Activation [3, 8]: −24.3 ± 0.8 mV
Peak Density [3, 8]: −114.3 ± 5.6 pA/pF
Steady-State inactivation [3, 8]: −75.65 ± 1.6 mV
Tau (τ) [3, 8]: 1.65 ± 0.14 ms
Activation [3, 9]: −21.92 ± 0.87 mV
Long-term inactivation, 2nd Pulse [3, 9]: −59.86 ± 2.37 % maximal Na+ current
Long-term inactivation, 3rd Pulse [3, 9]: −49.84 ± 2.93 % maximal Na+ current
Long-term inactivation, 4th Pulse [3, 9]: −46.98 ± 3.3 % maximal Na+ current
Peak Density [3, 9]: −92.79 ± 7.96 pA/pF
Steady-State inactivation [3, 9]: −58.11 ± 1.04 mV
Tau (τ) [3, 9]: 1.42 ± 0.09 ms
Activation [3, 10]: −27.8 ± 0.81 mV
Peak Density [3, 10]: −91.7 ± 10.3 pA/pF
Steady-State inactivation [3, 10]: −73.36 ± 1.4 mV
Tau (τ) [3, 10]: 1.63 ± 0.22 ms
Activation ([3]; + A-803467, Cap+ AAV-GFP PW164): −28.39 ± 0.59 mV
Peak Density ([3]; + A-803467, Cap+ AAV-GFP PW164): −87.62 ± 9.5 pA/pF
Steady-State inactivation ([3]; + A-803467, Cap+ AAV-GFP PW164): −75.15 ± 1.69 mV
Tau (τ) ([3]; + A-803467, Cap+ AAV-GFP PW164): 2.0 ± 0.32 ms
Long-term inactivation, 2nd Pulse ([3]; + A-803467, Cap+ GFP PW164): −53.56 ± 4.9 % maximal Na+ current
Long-term inactivation, 3rd Pulse ([3]; + A-803467, Cap+ GFP PW164): −54.96 ± 3.6 % maximal Na+ current
Long-term inactivation, 4th Pulse ([3]; + A-803467, Cap+ GFP PW164): −54.22 ± 4.3 % maximal Na+ current
Activation [3, 11]: −32.72 ± 1.59 mV
Long-term inactivation, 2nd Pulse [3, 11]: −74.3 ± 3.96 % maximal Na+ current
Long-term inactivation, 3rd Pulse [3, 11]: −68.4 ± 5.4 % maximal Na+ current
Long-term inactivation, 4th Pulse [3, 11]: −67.2 ± 5.2 % maximal Na+ current
Peak Density [3, 11]: −76.49 ± 4.86 pA/pF
Steady-State inactivation [3, 11]: −67.68 ± 1.53 mV
Tau (τ) [3, 11]: 1.38 ± 0.10 ms
Long-term inactivation, 2nd Pulse ([3]; + A-803467, Cap+ hFGF13 PW164): −55.4 ± 2.7 % maximal Na+ current
Long-term inactivation, 3rd Pulse ([3]; + A-803467, Cap+ hFGF13 PW164): −52.0 ± 3.7 % maximal Na+ current
Long-term inactivation, 4th Pulse ([3]; + A-803467, Cap+ hFGF13 PW164): −45.4 ± 3.1 % maximal Na+ current
Activation [3, 12]: −25.74 ± 1.14 mV
Peak Density [3, 12]: −111.31 ± 11.73 pA/pF
Steady-State inactivation [3, 12]: −60.96±1.53 mV
Tau (τ) [3, 12]: 1.18 ± 0.09 ms
Long-term inactivation, 2nd Pulse [3, 13]: −86.72 ± 2.2 % maximal Na+ current
Long-term inactivation, 3rd Pulse [3, 13]: −82.89 ± 3.3 % maximal Na+ current
Long-term inactivation, 4th Pulse [3, 13]: −81.6 ± 3.6 % maximal Na+ current
Activation [3, 14]: −29.77 ± 1.74 mV
Long-term inactivation, 2nd Pulse [3, 14]: −82.82 ± 2.85 % maximal Na+ current
Long-term inactivation, 3rd Pulse [3, 14]: −81.52 ± 3.86 % maximal Na+ current
Long-term inactivation, 4th Pulse [3, 14]: −81.16 ± 4.06 % maximal Na+ current
Peak Density [3, 14]: −96.02 ± 8.94 pA/pF
Steady-State inactivation [3, 14]: −64.99 ± 1.30 mV
Tau (τ) [3, 14]: 0.98 ± 0.09 ms
Activation [3, 15]: −27.51 ± 1.22 mV
Peak Density [3, 15]: −71.9 ± 9.4 pA/pF
Steady-State inactivation [3, 15]: −74.71 ± 1.43 mV
Tau (τ) [3, 15]: 1.39 ± 0.09 ms
Long-term inactivation, 2nd Pulse [3, 16]: −45.59 ± 3.33 % maximal Na+ current
Long-term inactivation, 3rd Pulse [3, 16]: −38.18 ± 2.61 % maximal Na+ current
Long-term inactivation, 4th Pulse [3, 16]: −32.17 ± 4.29 % maximal Na+ current
Activation [3, 17]: −30.7 ± 0.53 mV
Peak Density [3, 17]: −95.2 ± 9.9 pA/pF
Steady-State inactivation [3, 17]: −73.56 ± 1.33 mV
Tau (τ) [3, 17]: 1.52 ± 0.11 ms
Long-term inactivation, 2nd Pulse [3, 18]: −54.94 ± 3.35 % maximal Na+ current
Long-term inactivation, 3rd Pulse [3, 18]: −47.15 ± 2.81 % maximal Na+ current
Long-term inactivation, 4th Pulse [3, 18]: −45.57 ± 4.0 % maximal Na+ current
Long-term inactivation, 2nd Pulse [3, 19]: −74.84 ± 5.46 % maximal Na+ current
Long-term inactivation, 3rd Pulse [3, 19]: −67.02 ± 3.43 % maximal Na+ current
Long-term inactivation, 4th Pulse [3, 19]: −65.63 ± 4.22 % maximal Na+ current
Activation [3, 20]: −30.27 ± 0.75 mV
Peak Density [3, 20]: −84.1 ± 5.9 pA/pF
Steady-State inactivation [3, 20]: −75.11 ± 0.78 mV
Tau (τ) [3, 20]: 0.98 ± 0.09 ms
effect on INa potentiation by FGF13 overexpression ([3]; pAAV-FGF13-GFP neurons, PW164 50 μM): fully attenuated

— paper PMC12259270, “Sensory neuron–expressed FGF13 controls nociceptive signaling in diabetic neuropathy models” (The Journal of Clinical Investigation, 2025)
